According to patent publication US9192656B2, “Methods and compositions for the treatment of cancer” (QUINTESSENCE BIOSCIENCES, INC., priority 2006, dated 2015):

Columns and labels:
[1] = system: human prostate cancer cell line (DU145); experiment: In vivo inhibition of tumor growth, DU145 xenograft; parameters: species or system human tumor cells in nude mice; details: Example 4, Table 8, RNase 1 75 mg/kg 1×wk, docetaxel 8 mg/kg once a week
Method: Cells from a non-small cell lung cancer cell line (A549) were grown in nine T175 flasks in F12K media and 10% fetal calf serum until the cells were confluent. 4.5×10^6 cells (in 100 microliters) were injected into the right rear flank of 4-5 week old male homozygous (nu/nu) nude mice (Harlan, Madison Wis.). Tumors were allowed to grow to an average size of ≧75 mm^3 before treatments were initiated. Animals of each tumor type, with the properly sized tumors, were divided into treatment groups, including one set of animals treated weekly with vehicle (phosphate buffered saline, PBS). The vehicle and the test agents were all administered by intraperitoneal injection. Each animal was weighed twice a week during treatment. The tumors were measured twice weekly using calipers. Tumor volume (mm^3) was determined by using the formula for an ellipsoid sphere: […]
The percent tumor growth inhibition (% TGI) is calculated by: […]
This xenograft model was set up as in the previous example except that a human prostate cancer cell line (DU145) was used. The efficacy of wild type human RNase 1 is shown relative to docetaxel. The RNase 1 was administered at 75 mg per kg of body weight of the animal (75 mg/kg 1×wk), while the docetaxel was used at 8 mg/kg once a week. The value of n represents the number of animals in the specific treatment arm of the experiment.
(§1) The xenograft model of this example was set up as in the previous example except that a human prostate cancer cell line (DU145) was used. The efficacy of wild type human RNase 1 is shown. The RNase 1 was administered at 75 mg per kg of body weight of the animal once per week (75 mg/kg 1×wk). The value of n represents the number of animals in the specific treatment arm of the experiment.
as §1, with “example.” for “example except that a human prostate cancer cell line (DU145) was used.”, “three different doses: (1) 15” for “75”, “(15” for “(75”, “1×wk), (2) 75 mg/kg 1×wk, or (3) 300 mg/kg 1×wk.” for “1×wk).”

[2] = Clinical chemistry and complete blood count plus platelets (DU145 xenograft mice); format: in vivo
Method: Clinical chemistry and a complete blood count (CBC) plus platelets were performed on whole blood and serum samples collected from the mice 24 hours after the last treatment of the prostate xenograft model above. […] Creatinine was also tested and found not to differ. The levels of the liver enzymes, gamma glutamyl transferase (GGT) and alanine transaminase (ALT) in all treatment groups were similar (GGT data not shown.). The values were determined for the various treatment groups of the prostate (DU145) xenograft study for clinical chemistry (A., B.), complete blood count (C., D.), and platelets (F.). Abbreviations: TCO2, amount of bicarbonate ion (HCO3^−); Anion Gap, [Na+K]—[Cl+HCO3]; ALT, alanine aminotransferase; WBC, white blood count; RBC, red blood count; HGB, hemoglobin; RBC HGB, (CHCM×RBC×MCV)/1000); MCH, mean corpuscular hemoglobin; MCHC, mean corpuscular hemoglobin concentration; RDW, red cell distribution width; MPV, mean platelet volume; HCT, hematocrit; MCV, mean corpuscular volume.

With CC(=O)O[C@@]12CO[C@@H]1C[C@H](O)[C@@]1(C)C(=O)[C@H](O)C3=C(C)[C@@H](OC(=O)[C@H](O)[C@@H](NC(=O)OC(C)(C)C)c4ccccc4)C[C@@](O)([C@@H](OC(=O)c4ccccc4)[C@H]21)C3(C)C [Docetaxel, (2R,3S)-N-carboxy-3-phenylisoserine, N-tert-butyl ester, 13-ester with 5b-20-epoxy-12a,4,7b,10b,13a-hexahydroxytax-11-en-9-one 4-acetate 2-benzoate, trihydrate, reference compound] the “% TGI” value [1] was 92%, the “(Final − start)” value [1] was 180 mm^3 and the “(Final − start)/Control” value [1] was 0.08. For the same compound, the Final volume [1] was 249 mm^3, the Starting volume ([1]; at start) was 60 mm^3 and the Creatinine versus vehicle ([2]; 24 hours after the last treatment) was “not to differ”. For the same compound, the “Clinical chemistry and complete blood count plus platelets, all tests, versus vehicle” value ([2]; whole blood and serum 24 hours after the last treatment, Mann-Whitney U test) was “not to be significantly different”.
